Results: patent publication US10844077B2, “Thiazolyl-containing compounds for treating proliferative diseases” (Dana-Farber Cancer Institute, Inc., priority 2014, dated 2020)
Where “and” joins values, the source holds several entries; their conditions need not be identical. Identical values can stand only once. Like-named read-outs stand apart in the source and are kept apart here.

How the values were obtained:
Format in all cases: cell-based
kinases in BCWM.1 cells [1] = biological target: kinases in BCWM.1 cells (Homo sapiens, UniProt Q9Y2K2); settings: QSK; Lys2; 1 μM, 90 min; GF
Experimental: (§1) The cells were harvested and lysed. […] Bound kinases were identified and quantitated by ACTIVX as described in Patricelli et al., Biochemistry, 2007, 46(2): 350-358. The compounds were tested in duplicates against duplicate or quadruplicate control samples.

kinases in BCWM.1 cells [2] = biological target: kinases in BCWM.1 cells (Homo sapiens, UniProt P49841); settings: GSK3B; Lys2; 1 μM; GF
Experimental: as §1

kinases in BCWM.1 cells [3] = biological target: kinases in BCWM.1 cells (Homo sapiens, UniProt Q8TCG2); settings: PI4K2B; ATP; 1 μM, 90 min; GF
Experimental: as §1

kinases in BCWM.1 cells [4] = biological target: kinases in BCWM.1 cells (Homo sapiens, UniProt O14920); settings: IKKb; Lys2; 1 μM; GF
Experimental: as §1

kinases in BCWM.1 cells [5] = biological target: kinases in BCWM.1 cells (Homo sapiens, UniProt Q14680); settings: MELK; Lys2; 1 μM; GF
Experimental: as §1

kinases in BCWM.1 cells [6] = biological target: kinases in BCWM.1 cells (Homo sapiens, UniProt Q8IVH8); settings: KHS2; Lys1; 1 μM; GF
Experimental: as §1

kinases in BCWM.1 cells [7] = biological target: kinases in BCWM.1 cells (Homo sapiens, UniProt P54762); settings: EphB1; Activation Loop; 1 μM; GF
Experimental: as §1

kinases in BCWM.1 cells [8] = biological target: kinases in BCWM.1 cells (Homo sapiens, UniProt P17612); settings: PKACa; Lys2; 1 μM, 90 min; GF
Experimental: as §1

kinases in BCWM.1 cells [9] = biological target: kinases in BCWM.1 cells (Homo sapiens, UniProt P27361); settings: Erk1; Lys2; 1 μM; GF
Experimental: as §1

kinases in BCWM.1 cells [10] = biological target: kinases in BCWM.1 cells (Homo sapiens, UniProt Q14164); settings: IKKe; Lys1; 1 μM; GF
Experimental: as §1

kinases in BCWM.1 cells [11] = biological target: kinases in BCWM.1 cells (Homo sapiens, UniProt O00506); settings: YSK1; Lys1; 1 μM, 90 min; GF
Experimental: as §1

kinases in BCWM.1 cells [12] = biological target: kinases in BCWM.1 cells (Homo sapiens, UniProt Q16659); settings: Erk3; Lys2; 1 μM; GF
Experimental: as §1

kinases in BCWM.1 cells [13] = biological target: kinases in BCWM.1 cells (Homo sapiens, UniProt Q00534); settings: CDK6; Lys2; 1 μM; GF
Experimental: as §1

kinases in BCWM.1 cells [14] = biological target: kinases in BCWM.1 cells (Homo sapiens, UniProt Q8IU85); settings: CaMKld; Lys1; 1 μM; GF
Experimental: as §1

kinases in BCWM.1 cells [15] = biological target: kinases in BCWM.1 cells (Homo sapiens, UniProt Q96L34); settings: MARK4; Lys2; 1 μM; GF
Experimental: as §1

kinases in BCWM.1 cells [16] = biological target: kinases in BCWM.1 cells (Homo sapiens, UniProt P80192); settings: MLK1; Lys2; 1 μM; GF
Experimental: as §1

kinases in BCWM.1 cells [17] = biological target: kinases in BCWM.1 cells (Homo sapiens, UniProt Q96GX5); settings: MASTL, 1 μM, GF
Experimental: as §1

kinases in BCWM.1 cells [18] = biological target: kinases in BCWM.1 cells (Homo sapiens, UniProt P78356); settings: PIP4K2B; ATP; 1 μM, 90 min; GF
Experimental: as §1

kinases in BCWM.1 cells [19] = biological target: kinases in BCWM.1 cells (Homo sapiens, UniProt P06239); settings: LCK; Activation Loop; 1 μM; GF
Experimental: as §1

kinases in BCWM.1 cells [20] = biological target: kinases in BCWM.1 cells (Homo sapiens, UniProt P27448); settings: MARK3; Lys1; 1 μM; GF
Experimental: as §1

kinases in BCWM.1 cells [21] = biological target: kinases in BCWM.1 cells (Homo sapiens, UniProt P09769); settings: FGR; Activation Loop; 1 μM; GF
Experimental: as §1

kinases in BCWM.1 cells [22] = biological target: kinases in BCWM.1 cells (Homo sapiens, UniProt P24941); settings: CDK2; Lys2; 1 μM; GF
Experimental: as §1

kinases in BCWM.1 cells [23] = biological target: kinases in BCWM.1 cells (Homo sapiens, UniProt Q9Y4K4); settings: KHS1; Lys1; 1 μM; GF
Experimental: as §1

kinases in BCWM.1 cells [24] = biological target: kinases in BCWM.1 cells (Homo sapiens, UniProt Q99759); settings: MAP3K3; Lys1; 1 μM; GF
Experimental: as §1

kinases in BCWM.1 cells [25] = biological target: kinases in BCWM.1 cells (Homo sapiens, UniProt P11802); settings: CDK4; Lys2; 1 μM; GF
Experimental: as §1

kinases in BCWM.1 cells [26] = biological target: kinases in BCWM.1 cells (Homo sapiens, UniProt P78368); settings: CK1g2; Lys2; 1 μM; GF
Experimental: as §1

kinases in BCWM.1 cells [27] = biological target: kinases in BCWM.1 cells (Homo sapiens, UniProt O15111); settings: IKKa; Lys2; 1 μM; GF
Experimental: as §1

kinases in BCWM.1 cells [28] = biological target: kinases in BCWM.1 cells (Homo sapiens, UniProt P15056); settings: BRAF; Lys2; 1 μM; GF
Experimental: as §1

kinases in BCWM.1 cells (Homo sapiens, UniProt P11802), sequence (P11802 2-303 limits assumed): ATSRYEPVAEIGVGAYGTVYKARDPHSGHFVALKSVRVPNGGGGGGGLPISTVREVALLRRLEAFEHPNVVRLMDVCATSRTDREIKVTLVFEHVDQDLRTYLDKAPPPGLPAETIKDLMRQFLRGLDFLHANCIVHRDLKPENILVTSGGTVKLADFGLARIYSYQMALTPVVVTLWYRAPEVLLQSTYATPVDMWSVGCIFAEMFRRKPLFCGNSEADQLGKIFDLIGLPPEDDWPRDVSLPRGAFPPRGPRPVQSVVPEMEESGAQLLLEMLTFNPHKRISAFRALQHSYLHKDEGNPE
kinases in BCWM.1 cells (Homo sapiens, UniProt P06239), sequence (P06239 2-509 limits assumed): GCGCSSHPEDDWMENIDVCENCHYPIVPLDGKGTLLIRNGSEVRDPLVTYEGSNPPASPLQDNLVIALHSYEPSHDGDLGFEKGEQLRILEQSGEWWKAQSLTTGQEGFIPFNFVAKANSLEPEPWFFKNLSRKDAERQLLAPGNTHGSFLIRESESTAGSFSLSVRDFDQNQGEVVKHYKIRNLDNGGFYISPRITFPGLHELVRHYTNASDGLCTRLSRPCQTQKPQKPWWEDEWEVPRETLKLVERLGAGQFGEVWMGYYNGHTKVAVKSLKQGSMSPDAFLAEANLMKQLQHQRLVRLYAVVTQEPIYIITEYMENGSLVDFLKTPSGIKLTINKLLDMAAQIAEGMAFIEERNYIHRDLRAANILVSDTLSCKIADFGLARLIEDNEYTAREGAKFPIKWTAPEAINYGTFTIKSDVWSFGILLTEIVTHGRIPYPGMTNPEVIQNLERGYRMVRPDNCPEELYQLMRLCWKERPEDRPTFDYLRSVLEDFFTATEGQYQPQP
kinases in BCWM.1 cells (Homo sapiens, UniProt P09769), sequence (P09769 2-529 limits assumed): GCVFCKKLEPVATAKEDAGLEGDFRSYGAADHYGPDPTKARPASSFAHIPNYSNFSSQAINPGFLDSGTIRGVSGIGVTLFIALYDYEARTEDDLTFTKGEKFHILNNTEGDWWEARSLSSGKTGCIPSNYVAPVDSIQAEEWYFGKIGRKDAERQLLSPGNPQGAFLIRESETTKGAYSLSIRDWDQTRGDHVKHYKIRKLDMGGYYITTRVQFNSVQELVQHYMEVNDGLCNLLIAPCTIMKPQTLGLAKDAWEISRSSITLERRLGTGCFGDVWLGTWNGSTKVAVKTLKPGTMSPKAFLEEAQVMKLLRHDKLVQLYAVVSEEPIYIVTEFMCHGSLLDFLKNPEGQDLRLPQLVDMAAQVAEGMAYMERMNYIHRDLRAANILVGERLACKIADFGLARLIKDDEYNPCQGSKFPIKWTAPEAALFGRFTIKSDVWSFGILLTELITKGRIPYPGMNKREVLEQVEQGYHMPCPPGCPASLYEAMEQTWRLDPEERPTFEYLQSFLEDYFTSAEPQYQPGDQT
kinases in BCWM.1 cells (Homo sapiens, UniProt P54762), sequence (P54762 18-984 limits assumed): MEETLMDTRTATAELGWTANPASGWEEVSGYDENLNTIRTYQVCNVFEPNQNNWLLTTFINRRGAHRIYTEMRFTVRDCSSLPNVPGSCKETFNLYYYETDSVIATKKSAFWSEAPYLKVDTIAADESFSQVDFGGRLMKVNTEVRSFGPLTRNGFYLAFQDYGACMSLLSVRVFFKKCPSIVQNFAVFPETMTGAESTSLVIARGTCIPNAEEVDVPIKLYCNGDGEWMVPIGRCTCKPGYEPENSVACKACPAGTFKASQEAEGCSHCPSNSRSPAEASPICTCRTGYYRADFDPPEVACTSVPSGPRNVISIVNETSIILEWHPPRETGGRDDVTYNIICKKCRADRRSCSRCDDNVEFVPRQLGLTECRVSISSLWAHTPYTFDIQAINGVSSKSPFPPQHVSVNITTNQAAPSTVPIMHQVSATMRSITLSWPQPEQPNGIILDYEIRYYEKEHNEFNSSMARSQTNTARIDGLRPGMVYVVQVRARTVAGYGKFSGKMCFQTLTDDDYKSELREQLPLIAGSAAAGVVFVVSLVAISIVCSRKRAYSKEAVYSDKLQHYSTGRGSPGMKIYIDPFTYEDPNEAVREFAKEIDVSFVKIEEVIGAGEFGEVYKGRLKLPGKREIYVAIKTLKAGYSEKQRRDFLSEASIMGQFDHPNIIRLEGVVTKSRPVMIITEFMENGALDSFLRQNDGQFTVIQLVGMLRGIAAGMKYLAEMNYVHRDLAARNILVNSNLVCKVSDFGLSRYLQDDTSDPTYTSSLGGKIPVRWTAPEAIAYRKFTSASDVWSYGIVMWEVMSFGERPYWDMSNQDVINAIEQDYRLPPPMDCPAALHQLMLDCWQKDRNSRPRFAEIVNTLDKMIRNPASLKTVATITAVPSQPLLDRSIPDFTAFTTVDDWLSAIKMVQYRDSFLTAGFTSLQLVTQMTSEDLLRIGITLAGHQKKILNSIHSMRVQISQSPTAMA
kinases in BCWM.1 cells (Homo sapiens, UniProt P15056), sequence (P15056 2-766 limits assumed): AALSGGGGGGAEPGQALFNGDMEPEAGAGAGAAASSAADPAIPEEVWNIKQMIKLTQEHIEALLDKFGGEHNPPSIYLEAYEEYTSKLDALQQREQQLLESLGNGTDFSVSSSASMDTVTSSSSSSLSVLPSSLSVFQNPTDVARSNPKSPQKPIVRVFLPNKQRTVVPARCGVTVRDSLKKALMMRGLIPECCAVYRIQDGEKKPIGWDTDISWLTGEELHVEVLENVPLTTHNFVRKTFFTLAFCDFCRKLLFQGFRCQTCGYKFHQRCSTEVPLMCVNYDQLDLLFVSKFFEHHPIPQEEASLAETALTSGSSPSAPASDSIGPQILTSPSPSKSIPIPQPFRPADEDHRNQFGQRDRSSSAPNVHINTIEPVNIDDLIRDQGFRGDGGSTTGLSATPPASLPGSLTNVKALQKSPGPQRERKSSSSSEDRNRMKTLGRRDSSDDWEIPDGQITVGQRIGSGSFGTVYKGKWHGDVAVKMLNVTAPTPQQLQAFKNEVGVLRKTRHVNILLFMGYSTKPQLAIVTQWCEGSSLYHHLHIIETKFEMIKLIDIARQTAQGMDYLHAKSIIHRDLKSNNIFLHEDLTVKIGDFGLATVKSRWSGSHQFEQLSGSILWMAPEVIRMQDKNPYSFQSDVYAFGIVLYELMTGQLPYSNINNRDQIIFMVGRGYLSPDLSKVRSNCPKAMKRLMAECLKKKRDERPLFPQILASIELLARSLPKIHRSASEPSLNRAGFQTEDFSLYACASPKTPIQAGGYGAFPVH
kinases in BCWM.1 cells (Homo sapiens, UniProt P27361), sequence (P27361 2-379 limits assumed): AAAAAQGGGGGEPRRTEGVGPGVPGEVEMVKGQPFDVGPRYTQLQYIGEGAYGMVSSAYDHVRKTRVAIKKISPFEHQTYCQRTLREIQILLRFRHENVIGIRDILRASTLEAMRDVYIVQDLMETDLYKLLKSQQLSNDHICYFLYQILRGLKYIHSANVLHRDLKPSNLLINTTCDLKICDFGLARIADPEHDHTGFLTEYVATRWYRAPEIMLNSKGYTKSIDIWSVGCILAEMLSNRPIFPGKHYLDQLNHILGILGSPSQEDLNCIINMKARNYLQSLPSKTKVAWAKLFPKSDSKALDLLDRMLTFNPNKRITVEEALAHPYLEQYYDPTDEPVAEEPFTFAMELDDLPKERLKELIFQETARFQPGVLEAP
kinases in BCWM.1 cells (Homo sapiens, UniProt P78356), sequence (P78356 2-416 limits assumed): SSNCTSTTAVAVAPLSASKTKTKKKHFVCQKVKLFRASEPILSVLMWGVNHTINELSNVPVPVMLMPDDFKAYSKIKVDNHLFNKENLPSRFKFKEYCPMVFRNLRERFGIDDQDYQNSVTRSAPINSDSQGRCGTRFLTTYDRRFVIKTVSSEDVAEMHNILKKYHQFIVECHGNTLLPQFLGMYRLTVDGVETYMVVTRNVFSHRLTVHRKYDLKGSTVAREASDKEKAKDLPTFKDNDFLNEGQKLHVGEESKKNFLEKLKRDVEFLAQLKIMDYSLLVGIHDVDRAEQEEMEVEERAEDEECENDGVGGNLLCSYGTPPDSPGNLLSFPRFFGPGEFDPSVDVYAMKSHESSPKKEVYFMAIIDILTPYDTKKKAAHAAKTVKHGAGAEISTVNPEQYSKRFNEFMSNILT

CCC(=O)N1CC[C@H](Nc2nccc(Nc3ncc(C(=O)Nc4c(C)cccc4C)s3)n2)C1 [Example I-9]
% change of MS signal compared to control sample (kinases in BCWM.1 cells [1]): 2.5%
% change of MS signal compared to control sample (kinases in BCWM.1 cells [2]): −9.8% and −1.3%
% change of MS signal compared to control sample (kinases in BCWM.1 cells [3]): 6.5%
% change of MS signal compared to control sample (kinases in BCWM.1 cells [4]): 0.4% and −1.4%
% change of MS signal compared to control sample (kinases in BCWM.1 cells [5]): −9.6% and −9.5%
% change of MS signal compared to control sample (kinases in BCWM.1 cells [6]): −23.6% and −22.7%
% change of MS signal compared to control sample (kinases in BCWM.1 cells [7]): 53.3% and 78.9%
% change of MS signal compared to control sample (kinases in BCWM.1 cells [8]): −8.4%
% change of MS signal compared to control sample (kinases in BCWM.1 cells [9]): −3.1% and 3.1%
% change of MS signal compared to control sample (kinases in BCWM.1 cells [10]): −12.6% and −6.1%
% change of MS signal compared to control sample (kinases in BCWM.1 cells [11]): −20.8%
% change of MS signal compared to control sample (kinases in BCWM.1 cells [12]): 16.9% and 25.3%
% change of MS signal compared to control sample (kinases in BCWM.1 cells [13]): 2.7% and 3.5%
% change of MS signal compared to control sample (kinases in BCWM.1 cells [14]): −7.5% and −4.6%
% change of MS signal compared to control sample (kinases in BCWM.1 cells [15]): −12.2% and −10.2%
% change of MS signal compared to control sample (kinases in BCWM.1 cells [16]): 1% and 9%
% change of MS signal compared to control sample (kinases in BCWM.1 cells [17]; ATP Loop): 0.4% and 1.8%
% change of MS signal compared to control sample (kinases in BCWM.1 cells [17]; Lys1): 2.4% and 8%
% change of MS signal compared to control sample (kinases in BCWM.1 cells [18]): −19%
% change of MS signal compared to control sample (kinases in BCWM.1 cells [19]): 61.6% and 82.8%
% change of MS signal compared to control sample (kinases in BCWM.1 cells [20]): −6.4% and −4.8%
% change of MS signal compared to control sample (kinases in BCWM.1 cells [21]): 84.7% and 72.1%
% change of MS signal compared to control sample (kinases in BCWM.1 cells [22]): −8.7% and −4.3%
% change of MS signal compared to control sample (kinases in BCWM.1 cells [23]): −7.5% and −8.7%
% change of MS signal compared to control sample (kinases in BCWM.1 cells [24]): −13.7% and −19.7%
% change of MS signal compared to control sample (kinases in BCWM.1 cells [25]): 1.2% and 3.4%
% change of MS signal compared to control sample (kinases in BCWM.1 cells [26]): −8.9% and −10.9%
% change of MS signal compared to control sample (kinases in BCWM.1 cells [27]): −3.3% and −0.4%
% change of MS signal compared to control sample (kinases in BCWM.1 cells [28]): −18.3% and −12.9%
